Reference: patent publication US9920010B2, “CXCR7 receptor modulators” (IDORSIA PHARMACEUTICALS LTD, priority 2013, dated 2018)

Molecular target: T1, CXCR7 (Homo sapiens, UniProt P25106)
T1 construct: host or cells: CHO-K1 (PathHunter CHO-K1 CXCR7 b-arrestin cell line, stably transfected)
Experiment: PathHunter CHO-K1 CXCR7 b-arrestin recruitment assay (CXCR7 agonistic activity)
Format: cell-based
Conditions: PathHunter CHO-K1 CXCR7 b-arrestin cell line
Experimental: The CXCl12 receptor and CXCR7 agonistic activities of the compounds of formula (I) are determined in accordance with the following experimental method.
The assay is using the PathHunter™ CHO-K1 CXCR7 b-arrestin cell line from DiscoverX. The system is based on the Enzyme Fragment Complementation Technology. Two complementing fragments of the b-galactosidase enzyme are expressed within stably transfected cells. The larger portion of b-gal, termed EA for Enzyme Acceptor, is fused to the C-terminus of b-arrestin 2. The smaller fragment, termed ProLink™ tag, is fused to CXCR7 at the C-terminus. Upon activation, b-arrestin is recruited which forces the interaction of ProLink and EA, allowing complementation of the two fragments of b-gal and the formation of a functional enzyme which is capable of hydrolysing the substrate and generating a chemiluminescent signal.
CHO-K1 CXCR7 b-arrestin cells are detached from culture dishes with a cell dissociation buffer (Invitrogen, #13151-014) and collected in growing medium (F12 HAMS 90% (v/v)/FCS 10% (v/v), Penicillin/streptomycin 1% (v/v)). 5000 cells per well (in 20 μl) are seeded in a 384 well plate (white-walled, clear bottom; BD Falcon #353274). The plate is incubated at 37° C./5% CO2 for 24 hours. Medium is then replaced by 20 μl OPTIMEM (Invitrogen #31985) for 3 to 4 hours. Test compounds are dissolved at 10 mM in DMSO and serially diluted in DMSO to 200× of the final concentration for dose response curves. Compounds are then diluted 1:33.3 in HBSS1×. 5 μl/well of HBSS1×/20 mM HEPES/0.2% BSA are added to the assay plate followed by addition of 5 μl/well of diluted compounds. CXCL12 (Peprotech #300-28A) may be used as a reference agonist. The plate is incubated for 90 minutes at 37° C. 12 μl of detection reagent (Path Hunter Detection Kit, DiscoveRx, #93-0001) is transferred to the assay plate and to the plate is incubated for 1 hour at room temperature. Luminescent signal is read in a microplate reader (FLUOstar Optima, bmg). The calculated EC50 values may fluctuate depending on the daily cellular assay performance. Fluctuations of this kind are known to those skilled in the art. Average EC50 values from several measurements are given as geometric mean values.

T1 sequence (P25106 whole entry): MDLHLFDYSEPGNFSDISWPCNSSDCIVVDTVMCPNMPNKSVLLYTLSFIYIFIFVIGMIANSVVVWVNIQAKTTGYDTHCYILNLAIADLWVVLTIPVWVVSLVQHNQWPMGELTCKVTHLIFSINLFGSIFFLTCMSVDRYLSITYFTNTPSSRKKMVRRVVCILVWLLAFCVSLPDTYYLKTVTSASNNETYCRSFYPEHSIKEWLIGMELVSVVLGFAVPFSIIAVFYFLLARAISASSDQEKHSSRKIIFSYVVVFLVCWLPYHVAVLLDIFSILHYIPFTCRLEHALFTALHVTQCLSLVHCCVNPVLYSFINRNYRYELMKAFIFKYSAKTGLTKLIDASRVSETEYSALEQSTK
T1 sequence (P32121 whole entry partner): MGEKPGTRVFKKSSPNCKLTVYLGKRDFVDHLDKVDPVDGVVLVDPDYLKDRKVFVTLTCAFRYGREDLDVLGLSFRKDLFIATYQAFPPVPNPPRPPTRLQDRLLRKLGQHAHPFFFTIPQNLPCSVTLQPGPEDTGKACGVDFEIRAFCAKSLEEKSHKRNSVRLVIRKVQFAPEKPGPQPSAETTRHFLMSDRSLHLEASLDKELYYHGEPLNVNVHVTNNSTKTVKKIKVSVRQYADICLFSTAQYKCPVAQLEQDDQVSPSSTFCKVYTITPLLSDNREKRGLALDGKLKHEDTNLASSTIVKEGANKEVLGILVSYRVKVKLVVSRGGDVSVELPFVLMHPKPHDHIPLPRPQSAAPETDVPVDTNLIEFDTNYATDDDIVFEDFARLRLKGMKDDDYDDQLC

Row | Molecule | EC50 [nM]
1 | 2-(2-Cyclopropylmethyl-1,2,3,4-tetrahydro-isoquinolin-5-ylamino)-N-(2-dimethylamino-ethyl)-N-pyridin-3-ylmethyl-acetamide [Example 263] | 127
2 | CN1CCCC1CCN(Cc1ccccc1)C(=O)Cc1cccc2c1CCN(CC1CC1)C2 (racemic) [Example 4, rac-N-Benzyl-2-(2-cyclopropylmethyl-1,2,3,4-tetrahydro-isoquinolin-5-yl)-N-[2-(1-methyl-pyrrolidin-2-yl)-ethyl]-acetamide] | 47
3 | CN1CCCC1CCN(Cc1ccccc1)C(=O)CNc1cccc2c1CCN(CC1CC1)C2 (racemic) [Example 42, rac-N-Benzyl-2-(2-cyclopropylmethyl-1,2,3,4-tetrahydro-isoquinolin-5-ylamino)-N-[2-(1-methyl-pyrrolidin-2-yl)-ethyl]-acetamide] | 5
4 | CN1CCCC1CCN(CCc1ccccc1)C(=O)CNc1cccc2c1CCN(CC1CC1)C2 (racemic) [Example 49, rac-2-(2-Cyclopropylmethyl-1,2,3,4-tetrahydro-isoquinolin-5-ylamino)-N-[2-(1-methyl-pyrrolidin-2-yl)-ethyl]-N-phenethyl-acetamide] | 16
5 | CN1CCCC1CCN(CCCc1ccccc1)C(=O)CNc1cccc2c1CCN(CC1CC1)C2 (racemic) [Example 52, rac-2-(2-Cyclopropylmethyl-1,2,3,4-tetrahydro-isoquinolin-5-ylamino)-N-[2-(1-methyl-pyrrolidin-2-yl)-ethyl]-N-(3-phenyl-propyl)-acetamide] | 17
6 | CC(c1ccccc1C(F)(F)F)N(CCN(C)C)C(=O)CNc1cccc2c1CCN(CC1CC1)C2 (racemic) [Example 58, rac-2-(2-Cyclopropylmethyl-1,2,3,4-tetrahydro-isoquinolin-5-ylamino)-N-(2-dimethylamino-ethyl)-N-[1-(2-trifluoromethyl-phenyl)-ethyl]-acetamide] | 16
7 | C/C(=C\c1ccccc1)CN(CCC1CCCN1C)C(=O)CNc1cccc2c1CCN(CC1CC1)C2 (racemic) [Example 61, rac-2-(2-Cyclopropylmethyl-1,2,3,4-tetrahydro-isoquinolin-5-ylamino)-N-((E)-2-methyl-3-phenyl-allyl)-N-[2-(1-methyl-pyrrolidin-2-yl)-ethyl]-acetamide] | 5
8 | CC(C)(C)OC(=O)N1CCC(N(Cc2ccccc2)C(=O)CNc2cccc3c2CCN(CC2CC2)C3)C1 (racemic) [Example 65, rac-3-{Benzyl-[2-(2-cyclopropylmethyl-1,2,3,4-tetrahydro-isoquinolin-5-ylamino)-acetyl]-amino}-pyrrolidine-1-carboxylic acid tert-butyl ester] | 150

Further molecules by falling EC50, results first:

Row | EC50 [nM] | Molecule
9 | 52 | CN1CCCC(N(Cc2ccccc2C(F)(F)F)C(=O)CNc2cccc3c2CCN(C(=O)OC(C)(C)C)C3)C1 (racemic) [Example 11, rac-5-({[(1-Methyl-piperidin-3-yl)-(2-trifluoromethyl-benzyl)-carbamoyl]-methyl}-amino)-3,4-dihydro-1H-isoquinoline-2-carboxylic acid tert-butyl ester]
10 | 31 | 2-(2-Cyclopropylmethyl-1,2,3,4-tetrahydro-isoquinolin-5-ylamino)-N-isoxazol-5-ylmethyl-N-(2-trifluoromethyl-benzyl)-acetamide [Example 250]
11 | 28 | CCC(=O)N1CCc2c(cccc2NCC(=O)N(CCC2CCCN2C)Cc2ccccc2)C1 (racemic) [Example 32, rac-N-Benzyl-N-[2-(1-methyl-pyrrolidin-2-yl)-ethyl]-2-(2-propionyl-1,2,3,4-tetrahydro-isoquinolin-5-ylamino)-acetamide]
12 | 23 | CN1CCCC1CCN(C/C=C/c1ccccc1)C(=O)CNc1cccc2c1CCN(CC1CC1)C2 (racemic) [Example 53, rac-2-(2-Cyclopropylmethyl-1,2,3,4-tetrahydro-isoquinolin-5-ylamino)-N-[2-(1-methyl-pyrrolidin-2-yl)-ethyl]-N-((E)-3-phenyl-allyl)-acetamide]
